Laboratory results: patent US8962842B2, “2-pyridone antimicrobial compositions” (priority 2010, dated 2015)
Converted amounts (≈) assume the structure as drawn. Like-named read-outs stand apart in the source and are kept apart here.

Tests used:
[1] = system: Pseudomonas aeruginosa (12 strains); assay: MIC range, broader panel of Quotient Bioresearch strains (Table 4); type: cell-based; details: for MIC50: read-out: MIC Range Median, Pseudomonas aeruginosa (12 strains)
[2] = system: Streptococcus pyogenes (4 strains); assay: MIC range, broader panel of Quotient Bioresearch strains (Table 3); details: for MIC50: read-out: MIC Range Median, Streptococcus pyogenes (4 strains)
[3] = system: Streptococcus pneumonia (5 strains); assay: as above; details: Streptococcus pneumoniae; for MIC50: read-out: MIC Range Median, Streptococcus pneumonia (5 strains)
[4] = system: Burkholderia cepacia (5 strains); assay: MIC range, broader panel of Quotient Bioresearch strains (Table 4); type: cell-based; details: for MIC50: read-out: MIC Range Median, Burkholderia cepacia (5 strains)
[5] = system: Acinetobacter baumannii (12 strains); assay: as above; type: cell-based; details: for MIC50: read-out: MIC Range Median, Acinetobacter baumannii (12 strains)
[6] = system: Haemophilus influenza (5 strains); assay: as above; type: cell-based, Haemophilus influenzae; details: for MIC50: 16 h, Median of the strain panel
[7] = system: Group C Streptococcus (4 strains); assay: MIC range, broader panel of Quotient Bioresearch strains (Table 3); details: for MIC50: read-out: MIC Range Median, Group C Streptococcus (4 strains)
[8] = system: Enterococcus faecium (3 strains); assay: as above; details: for MIC50: read-out: MIC Range Median, Enterococcus faecium (3 strains)
[9] = system: Enterococcus faecalis (5 strains); assay: as above; details: for MIC50: read-out: MIC Range Median, Enterococcus faecalis (5 strains)
[10] = system: Klebsiella pneumonia (4 strains); assay: MIC range, broader panel of Quotient Bioresearch strains (Table 4); type: cell-based; details: Klebsiella pneumoniae; for MIC50: read-out: MIC Range Median, Klebsiella pneumonia (4 strains)
[11] = system: Escherichia coli (6 strains); assay: as above; type: cell-based; details: for MIC50: read-out: MIC Range Median, Escherichia coli (6 strains)
[12] = system: Staphylococcus aureus (16 strains); assay: MIC range, broader panel of Quotient Bioresearch strains (Table 3); details: for MIC50: read-out: MIC Range Median, Staphylococcus aureus (16 strains)
[13] = read-out: MIC Range High, Streptococcus pyogenes (4 strains)
[14] = read-out: MIC Range Low, Streptococcus pyogenes (4 strains)
[15] = read-out: MIC Range High, Streptococcus pneumonia (5 strains)
[16] = read-out: MIC Range Low, Streptococcus pneumonia (5 strains)
[17] = read-out: MIC Range High, Burkholderia cepacia (5 strains)
[18] = read-out: MIC Range Low, Burkholderia cepacia (5 strains)
[19] = High of the strain panel, read-out: MIC Range High, Haemophilus influenza (5 strains)
[20] = Low of the strain panel, read-out: MIC Range Low, Haemophilus influenza (5 strains)
[21] = read-out: MIC Range High, Group C Streptococcus (4 strains)
[22] = read-out: MIC Range Low, Group C Streptococcus (4 strains)
[23] = read-out: MIC Range High, Enterococcus faecium (3 strains)
[24] = read-out: MIC Range Low, Enterococcus faecium (3 strains)
[25] = read-out: MIC Range High, Enterococcus faecalis (5 strains)
[26] = read-out: MIC Range Low, Enterococcus faecalis (5 strains)
[27] = read-out: MIC Range High, Staphylococcus aureus (16 strains)
[28] = read-out: MIC Range Low, Staphylococcus aureus (16 strains)

| Compound | MIC [2, 13] | MIC [2, 14] | MIC50 [2] | MIC [3, 15] | MIC [3, 16] | MIC50 [3] | MIC [4, 17] | MIC [4, 18] | MIC50 [4] | MIC50 [6] | MIC [6, 19] | MIC [6, 20] | MIC [7, 21] | MIC [7, 22] | MIC50 [7] | MIC [8, 23] | MIC [8, 24] | MIC50 [8] | MIC [9, 25] | MIC [9, 26] | further results |
| --- | --- | --- | --- | --- | --- | --- | --- | --- | --- | --- | --- | --- | --- | --- | --- | --- | --- | --- | --- | --- | --- |
| Cc1c(C2=CCNCC2)ccn2c(=O)c(C(=O)O)cc(C3CC3)c12 [Example 42, 1-cyclopropyl-9-methyl-4-oxo-8-(1,2,3,6-tetrahydropyridin-4-yl)-4H-quinolizine-3-carboxylic acid] | 8 µg/mL (≈ 24.7 µM) | 2 µg/mL (≈ 6.17 µM) | 3 µg/mL (≈ 9.25 µM) | 8 µg/mL (≈ 24.7 µM) | 4 µg/mL (≈ 12.3 µM) | 4 µg/mL (≈ 12.3 µM) | 2 µg/mL (≈ 6.17 µM) | 2 µg/mL (≈ 6.17 µM) | 2 µg/mL (≈ 6.17 µM) | 0.06 µg/mL (≈ 0.185 µM) | 0.06 µg/mL (≈ 0.185 µM) | 0.03 µg/mL (≈ 0.0925 µM) | 4 µg/mL (≈ 12.3 µM) | 2 µg/mL (≈ 6.17 µM) | 2 µg/mL (≈ 6.17 µM) | > 32 µg/mL | 16 µg/mL (≈ 49.3 µM) | > 32 µg/mL | 32 µg/mL (≈ 98.6 µM) | 4 µg/mL (≈ 12.3 µM) | MIC ([1]; High of the strain panel, read-out: MIC Range High, Pseudomonas aeruginosa (12 strains)): > 32 µg/mL; MIC ([1]; Low of the strain panel, read-out: MIC Range Low, Pseudomonas aeruginosa (12 strains)): 1 µg/mL (≈ 3.08 µM); MIC50 ([1]; Median of the strain panel): 32 µg/mL (≈ 98.6 µM); MIC ([5]; High of the strain panel, read-out: MIC Range High, Acinetobacter baumannii (12 strains)): > 32 µg/mL; MIC ([5]; Low of the strain panel, read-out: MIC Range Low, Acinetobacter baumannii (12 strains)): 0.25 µg/mL (≈ 0.771 µM); MIC50 ([5]; Median of the strain panel): > 32 µg/mL; MIC50 [9]: 4 µg/mL (≈ 12.3 µM); MIC ([10]; High of the strain panel, read-out: MIC Range High, Klebsiella pneumonia (4 strains)): > 32 µg/mL; MIC ([10]; Low of the strain panel, read-out: MIC Range Low, Klebsiella pneumonia (4 strains)): 0.12 µg/mL (≈ 0.37 µM); MIC50 ([10]; Median of the strain panel): 8 µg/mL (≈ 24.7 µM); MIC ([11]; High of the strain panel, read-out: MIC Range High, Escherichia coli (6 strains)): > 32 µg/mL; MIC ([11]; Low of the strain panel, read-out: MIC Range Low, Escherichia coli (6 strains)): 0.06 µg/mL (≈ 0.185 µM); MIC50 ([11]; Median of the strain panel): 32 µg/mL (≈ 98.6 µM); MIC [12, 27]: 32 µg/mL (≈ 98.6 µM); MIC [12, 28]: 0.5 µg/mL (≈ 1.54 µM); MIC50 [12]: 16.2 µg/mL (≈ 50.1 µM) |
| Cc1c(-c2ccc(N)cc2)c(F)cn2c(=O)c(C(=O)[O-])cc(C3CC3)c12.[K+] [Example 5 K salt, potassium 8-(4-amino-phenyl)-1-cyclopropyl-7-fluoro-9-methyl-4-oxo-4H-quinolizine-3-carboxylate] | 0.5 µg/mL | 0.12 µg/mL | 0.12 µg/mL | 0.25 µg/mL | 0.12 µg/mL | 0.12 µg/mL | 0.5 µg/mL | 0.12 µg/mL | 0.25 µg/mL | ≤ 0.015 µg/mL | ≤ 0.015 µg/mL | ≤ 0.015 µg/mL | 0.12 µg/mL | 0.06 µg/mL | 0.06 µg/mL | 4 µg/mL | 0.25 µg/mL | 1 µg/mL | 1 µg/mL | 0.03 µg/mL | MIC ([1]; read-out: MIC Range High, Pseudomonas aeruginosa (12 strains)): 16 µg/mL; MIC ([1]; read-out: MIC Range Low, Pseudomonas aeruginosa (12 strains)): 1 µg/mL; MIC50 [1]: 4 µg/mL; MIC ([5]; read-out: MIC Range High, Acinetobacter baumannii (12 strains)): 16 µg/mL; MIC ([5]; read-out: MIC Range Low, Acinetobacter baumannii (12 strains)): 0.06 µg/mL; MIC50 [5]: 6 µg/mL; MIC50 [9]: 0.06 µg/mL; MIC ([10]; read-out: MIC Range High, Klebsiella pneumonia (4 strains)): 16 µg/mL; MIC ([10]; read-out: MIC Range Low, Klebsiella pneumonia (4 strains)): 0.12 µg/mL; MIC50 [10]: 10 µg/mL; MIC ([11]; read-out: MIC Range High, Escherichia coli (6 strains)): 16 µg/mL; MIC ([11]; read-out: MIC Range Low, Escherichia coli (6 strains)): 0.03 µg/mL; MIC50 [11]: 8 µg/mL; MIC [12, 27]: 0.25 µg/mL; MIC [12, 28]: ≤ 0.015 µg/mL; MIC50 [12]: 0.12 µg/mL |
